In a melting point compilation (Tetko et al.):

Details: a range is the spread between reports

melting point [°C]	Compound
170 to 172	NC(=O)c1ccc([N+](=O)[O-])cc1Cl
116 to 117	O=C(O)Cc1ccc(Br)cc1
6.6 to 7	Cc1ccccc1Cc1ccccc1
165	CS(=O)(=O)c1ccc(C(O)C(CO)NC(=O)C(Cl)Cl)cc1 (stereo not given)
-86.8 to -86	CC(C)OC(C)C
42 to 43	O=C(c1ccccc1)c1ccccn1
4 to 4.1	C=CCCCCCCCCCCCCCC
74 to 75	Cn1c(=O)ccc2ccccc21
-49 to -48.9	CCCCCCCCC(C)C
83 to 86	O=C(O)Cc1ccc(F)cc1
45 to 46	C1=CC2CCC1C2
-2.2 to -2	CC#CCO
327 to 330	CC1=NS(=O)(=O)c2cc(Cl)ccc2N1
11 to 12	CC(S)C(=O)O (stereo not given)
104 to 108	O=C(c1ccc(F)cc1)c1ccc(F)cc1
148 to 149	CC(C)CCCC(C)C1CCC2C3CC=C4CC(O)CCC4(C)C3CCC12C (stereo not given)
-120 to -119	C=CCCCCC
110	CC(=O)N[C@@H](CS)C(=O)O
169 to 170	O=C1CSC(=S)N1
437 to 440	c1cc2ccc3ccc4ccc5ccc6ccc1c1c2c3c4c5c61
156	O=P(c1ccccc1)(c1ccccc1)c1ccccc1
96 to 97.5	Nc1ccc(F)c([N+](=O)[O-])c1
83 to 84	Nc1ccc(Oc2ccccc2)cc1

melting point [°C]	Compound
-82 to -81.7	CC(C)C(C(C)C)C(C)C
11 to 13.8	CC(=O)C(=O)O
-139	CCCl
117 to 118	O=C(O)C(O)c1ccc(Br)cc1 (stereo not given)
76 to 78	OC1CCCCCCCCCCC1
-16.2 to -16	CCc1c(C)cccc1C
16.6 to 17	CC(=O)O
-111	CCC1CCCCC1
-30 to -29.8	Cc1c(F)c(F)c(F)c(F)c1F
71 to 73	Cc1cc(C)c(Br)cc1C
268 to 270	Cc1ccc2c(c1[N+](=O)[O-])C(=O)c1ccccc1C2=O
250 to 251	O=C1CC(c2ccc(O)cc2)Oc2cc(O)cc(O)c21 (stereo not given)
91 to 92	OCc1ccccc1I
55 to 58	Nc1ccccc1I
100 to 102	OC1CCCCC1O (stereo not given)
60 to 61	CC(C)c1ncc([N+](=O)[O-])n1C
64 to 67	CC(=O)NN
83 to 86	O=Cc1cc(Br)cc(Br)c1O
7 to 8	Cc1ccc(Cl)cc1
117 to 118	O=C(O)CCC(=O)c1ccccc1
-85 to -80	CC1OC1C (stereo not given)
76 to 79	CCN1C(=O)c2ccccc2C1=O
282 to 283	c1ccc(C(c2ccccc2)(c2ccccc2)c2ccccc2)cc1

melting point [°C]	Compound
26 to 26.5	c1ccc2cnccc2c1
220	Nc1nc(Cl)cc(Cl)n1
52 to 52.5	O=C(c1ccccc1)c1cccc(C(F)(F)F)c1
-118	CCCCC(C)C
48 to 48.5	CCCCCCCCOc1ccc(C(=O)c2ccccc2)c(O)c1
63.4 to 65	Clc1cc(Cl)cc(Cl)c1
83 to 88	CC(=O)Nc1cccc(F)c1
124 to 128	NNC(=O)Nc1ccccc1
189 to 190	CC(CO)(CO)C(=O)O
-128 to -127	C1CC1
200 to 202	Nc1ccc(S(=O)(=O)Nc2nccs2)cc1
-31.3 to -31	CCCCCCCCCCCl
181 to 182	O=C(O)c1ccc(CO)cc1
16 to 17.9	OCCN1CCCCC1
131 to 132	O=[N+]([O-])c1cc([N+](=O)[O-])c2ccccc2c1O
-80 to -76	CCOCCOCCO
25 to 26	CC(C)(C)O
-41 to -40	CCOC(=O)C(=O)OCC
63 to 65	Nc1cccc(N)c1
45 to 48	CCCCCCCCC#CCCCCCCCC(=O)O
-22 to -21.6	CC1CCCC1(C)C (stereo not given)
216 to 218	CC(C)(C)c1cc(O)c(C(C)(C)C)cc1O
15.8 to 17	CCCCCCCC(=O)O

melting point [°C]	Compound
165 to 166	Cc1cccc(C(=O)O)c1O
46 to 46.5	Cc1cc(Cl)nc(Cl)n1
136 to 137	CCOc1cccc(C(=O)O)c1
242 to 245	c1ccc(-c2cnc(-c3ccc(-c4ncc(-c5ccccc5)o4)cc3)o2)cc1
108 to 109	C=CCc1ccccc1OCC(O)CNC(C)C (stereo not given)
-112	CCC(C)C(C)(C)C (stereo not given)
100 to 102	c1ccc2c(c1)Cc1ccccc1O2
-13.5 to -13	Cc1ccc(Cl)cc1Cl
61 to 62	CC(C)=NO
-116 to -115	CC1CC=CCC1 (stereo not given)
-26 to -25.6	CCCCCCCCCCC
22 to 26	C[Si](C)(C)C#C[Si](C)(C)C
43.2 to 45	CCCCCCCCCCCC(=O)O
112 to 116	c1ccc2c(c1)Cc1ccccc1-2
200 to 203	O=P(O)(O)CP(=O)(O)O
36 to 36.9	C=C(C)[C@@H]1CCC2=CC(=O)C[C@@H](C)[C@]2(C)C1
78 to 80	COC(=O)c1cccc([N+](=O)[O-])c1
113 to 115	Oc1cc(O)c(Cl)cc1Cl
246 to 251	c1ccc(-c2c3ccccc3c(-c3ccccc3)c3ccccc23)cc1
99 to 101	CC(=O)c1ccc2ccccc2c1O
219	CCC1(O)CC2CN(CCc3c([nH]c4ccccc34)C(C(=O)OC)(c3cc4c(cc3OC)N(C=O)C3C(O)(C(=O)OC)C(OC(C)=O)C5(CC)C=CCN6CCC43C65)C2)C1 (stereo not given)
171 to 173	CC(=O)c1ccc(O)c(O)c1O
31 to 32	CC(=O)c1ccc(C(F)(F)F)cc1

melting point [°C]	Compound
-138 to -137	C=C(C)Cl
-115	C=CC(C)(C)C
26 to 27	C=CCOc1nc(OCC=C)nc(OCC=C)n1
116 to 119	C=Cc1ccc(-c2ccccc2)cc1
96.5 to 97.8	O=C(O)CCCC(=O)O
-28 to -27	Cc1ccccc1Br
34 to 34.5	CCOC(=O)c1ccco1
4.5 to 6	O=C(CO)c1ccccc1
103 to 106	CCOC(=O)c1c[nH]nc1N
-133 to -131	CC1CC(C)C(C)C1 (stereo not given)
91.5 to 93	c1ccc(CN(Cc2ccccc2)Cc2ccccc2)cc1
39.9 to 40.5	OC1CCCCCCCCC1
61 to 62	O=C(O)CSCc1ccccc1
-142	CC1CCC(C)(C)C1 (stereo not given)
73 to 75	Sc1ccc(Br)cc1
68 to 73	Clc1ccc(SSc2ccc(Cl)cc2)cc1
36 to 37	CC1(O)CCCC1
13.3 to 14	Brc1cnc2ccccc2c1
74 to 78.5	Nc1c(Cl)cc(Cl)cc1Cl
-41 to -40	CCCCCC(=O)OC(=O)CCCCC
31 to 33.5	Cc1cccnc1N
-128 to -127	C=CC(CC)CC
194	O=[N+]([O-])c1cc(S(=O)(=O)c2ccc(F)c([N+](=O)[O-])c2)ccc1F

melting point [°C]	Compound
59 to 61.5	Cc1ccc(CO)cc1
83 to 84	O=C1c2ccccc2-c2ccccc21
180 to 183	CN(C)c1ccc(/N=N/c2ccccc2C(=O)O)cc1
-100 to -99	CCC(C)(C)C
79 to 79.5	Nc1ccccc1Nc1ccccc1
104 to 105	C=CCC(C(=O)O)C(=O)O
43 to 46	O=C(O)Cc1cccc(F)c1
122	O=C(O)c1ccoc1
31.5 to 32	O=S1(=O)CCCO1
86 to 88	Clc1cccc(Cl)n1
186 to 188	O=C(O)c1cc(Cl)cc(Cl)c1
19 to 20	COc1ccc(OC)c(C(C)=O)c1
15 to 17	CC(C)(C)C#N
170 to 175	Oc1ccc(O)cc1
-32.3 to -32	CC#CC
123 to 124	O=C(O)c1cccc(F)c1
34.8 to 36	N#Cc1ccc(F)cc1
-35.5 to -35	CCCCCCCC(C)O (stereo not given)

Compound	melting point [°C]
c1ccc(C2CO2)cc1 (stereo not given)	-37 to -35.6
CCC(=O)c1ccc(Cl)cc1	35 to 37.3
C#CC1(O)CCCC1	25 to 27
NCC(CC(=O)O)c1ccc(Cl)cc1 (stereo not given)	207 to 208
C=C(C)C#N	-36 to -35.8
CC(=O)CC(C)C	-84 to -80
Clc1nc(Cl)nc(Nc2ccccc2Cl)n1	160
CNC(=O)Oc1ccccc1OC(C)C	90 to 91.5
C=CC(=C)C	-146
Cc1ccc(N)cc1	43 to 44
O=C(O)COc1ccc(Cl)cc1	159 to 164
Oc1cc(Cl)cc(Cl)c1	66 to 68
O=[N+]([O-])c1cc(C(F)(F)F)cc([N+](=O)[O-])c1Cl	56 to 57
CC(C)Nc1ccc(Nc2ccccc2)cc1	74 to 77
Cc1ccc(C)cc1	12 to 13.2
CCOCCOC(C)=O	-62 to -61

Compound	melting point [°C]
O=[N+]([O-])c1cc(C(F)(F)F)ccc1Cl	-3 to -2.5
COc1ccc(C(=O)O)cc1OC	180 to 181
O=S(=O)(Cl)Cl	-54.1 to -54
Oc1ccccc1-c1ccccc1	56 to 60
Clc1ccccc1C(Cl)(Cl)Cl	29 to 30
O=P(Oc1ccccc1)(Oc1ccccc1)Oc1ccccc1	50 to 50.5
CCOC(=O)C(C(=O)OCC)c1ccccc1	16 to 16.5
Cc1cc(-c2ccc(N)c(C)c2)ccc1N	130 to 132
COP(=S)(OC)SCn1nnc2ccccc2c1=O	72 to 73
NC(=O)CI	93.5 to 94.5
CN(C)c1ccccc1	2 to 3
S=C=Nc1ccc(Br)cc1	58 to 60.5
Nc1ccc2c(c1)Cc1ccccc1-2	128 to 129
C1=Cc2cccc3cccc1c23	91 to 92.5
Oc1cc(Cl)ccc1Oc1ccc(Cl)cc1Cl	55.6 to 57
O=C(O)C(Cl)(Cl)Cl	56 to 57.5
